Experimental data as given in the supplement of paper PMC5579334.
± gives the standard deviation of the averaged measurements.

Assays:
YST-1 [1] = experiment: % inhibition of CellTiter-Glo viability at highest tested concentration (72 h), relative to DMSO and benzethonium chloride controls; higher = more inhibition
In short: (§1)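 For this screen, 384-well plates were preprinted with each compound at five concentrations in 10-fold steps and seeded with MPNST cell lines or primary human Schwann cells at 750–1000 cells per well. Incubation lasted 72 h at 37 °C, 5% CO2, and CellTiter-Glo ATP luminescence, scaled between vehicle and positive-control wells and averaged over duplicates where available, served as viability. Logistic fits with four parameters were applied. Relative IC50 (censored at the top concentration) and drug sensitivity score derive from these fits, and percent inhibition is at the top concentration.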

[2] = system: HSC1 (primary human Schwann cells); experiment: as above
In short: as §1

S1507-2 [3] = experiment: as above
In short: as §1

HS-PSS [4] = experiment: as above
In short: as §1

S462 [5] = experiment: as above
In short: as §1

HS-Sch-2 [6] = experiment: as above
In short: as §1

STS26T [7] = experiment: as above
In short: as §1

[8] = system: HSC2 (primary human Schwann cells); experiment: as above
In short: as §1

ST8814 [9] = experiment: as above
In short: as §1

[10] = system: HSC1 (primary human Schwann cells); experiment: drug sensitivity score (DSS, CellTox-Green cytotoxicity, 72 h) (DSS (dimensionless)); higher = more cytotoxic; extreme values may be limits of the assay
In short: (§2)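 MPNST cell lines and primary human Schwann cells were grown for 72 h at 37 °C in 384-well plates containing five 10-fold compound dilutions. CellTox-Green, added before seeding at a final 1:1000 dilution, gave fluorescence from DNA released by disrupted cells, and signals were scaled to vehicle and positive-control wells. Curves were fitted with a four-parameter logistic model. Drug sensitivity score and relative IC50 come from these fits, with IC50 censored at the top concentration.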

S1507-2 [11] = experiment: as above
In short: as §2

HS-PSS [12] = experiment: as above
In short: as §2

STS26T [13] = experiment: as above
In short: as §2

[14] = system: HSC2 (primary human Schwann cells); experiment: as above
In short: as §2

ST8814 [15] = experiment: as above
In short: as §2

YST-1 [16] = experiment: drug sensitivity score (DSS, CellTiter-Glo viability, 72 h) (DSS (dimensionless)); higher = more sensitive; extreme values may be limits of the assay
In short: as §1

[17] = system: HSC1 (primary human Schwann cells); experiment: as above
In short: as §1

S1507-2 [18] = experiment: as above
In short: as §1

HS-PSS [19] = experiment: as above
In short: as §1

S462 [20] = experiment: as above
In short: as §1

HS-Sch-2 [21] = experiment: as above
In short: as §1

STS26T [22] = experiment: as above
In short: as §1

[23] = system: HSC2 (primary human Schwann cells); experiment: as above
In short: as §1

ST8814 [24] = experiment: as above
In short: as §1

| SMILES | % inhibition (YST-1 [1]) | % inhibition [2] | % inhibition (S1507-2 [3]) | % inhibition (HS-PSS [4]) | % inhibition (S462 [5]) | % inhibition (HS-Sch-2 [6]) | % inhibition (STS26T [7]) | % inhibition [8] | % inhibition (ST8814 [9]) | drug sensitivity score [10] | drug sensitivity score (S1507-2 [11]) | drug sensitivity score (HS-PSS [12]) | drug sensitivity score (STS26T [13]) | drug sensitivity score [14] | drug sensitivity score (ST8814 [15]) | drug sensitivity score (YST-1 [16]) | drug sensitivity score [17] | drug sensitivity score (S1507-2 [18]) | drug sensitivity score (HS-PSS [19]) | drug sensitivity score (S462 [20]) | drug sensitivity score (HS-Sch-2 [21]) | drug sensitivity score (STS26T [22]) | drug sensitivity score [23] | drug sensitivity score (ST8814 [24]) |
| --- | --- | --- | --- | --- | --- | --- | --- | --- | --- | --- | --- | --- | --- | --- | --- | --- | --- | --- | --- | --- | --- | --- | --- | --- |
| CCCCCCCCc1ccc(CCC(N)(CO)CO)cc1 [Fingolimod] (max concentration tested 10000 nM) | 101% | 103% | 103 ± 2.5% | 101% | 101.6 ± 0.59% | 101% | 102% | 101% | 103% | 8.13 | 13.3 ± 9.3 | 5.38 | 4.94 | 7.44 | 5.09 | 5.97 | 7.62 | 7.98 ± 1 | 8.31 | 5.79 ± 0.46 | 6.87 | 6.58 | 7.17 | 6.27 |
| CS(=O)(=O)CCNCc1ccc(-c2ccc3ncnc(Nc4ccc(OCc5cccc(F)c5)c(Cl)c4)c3c2)o1 [Lapatinib] (max concentration tested 1000 nM) | 22.2% | 7.8% | 2.48 ± 6% | 6.86% | -5.81 ± 6.8% | 1.85% | 10.1% | 5.46% | -2.6% | 0 | 0 | 0 | 0 | 0 | 0 | 0.63 | 0 | 0 | 0 | 0 | 0 | 0.0002 | 0 | 0 |
| Cc1[nH]c2ccccc2c1CCNCc1ccc(/C=C/C(=O)NO)cc1 [Panobinostat] (max concentration tested 1000 nM) | 99.9% | 101% | 104.5 ± 0.79% | 93.9% | 103.7 ± 0.37% | 101% | 98% | 101% | 101% | 10.5 | 20.6 ± 0.84 | 9.17 | 11.1 | 10.7 | 16.1 | 23.7 | 19.5 | 24.1 ± 0.61 | 14.1 | 22.7 ± 0.67 | 19.1 | 16.8 | 16.7 | 22 |
| CC[C@H](CC#N)OC(=O)N[C@@H](C)c1cccc(NC(=O)Nc2ccc(-c3cnco3)c(OC)c2)c1 [AVN944] (max concentration tested 10000 nM) | 89.7% | 71.2% | 54.6 ± 5.9% | 69.4% | 81.8 ± 2.8% | 60.8% | 74.3% | 76.8% | 78.7% | 0 | 0 | 0 | 0.427 | 0 | 7.26 | 16 | 18.7 | 8.48 ± 0.44 | 12.5 | 14.5 ± 1.5 | 8.71 | 12.2 | 20 | 11.4 |
